Tested on: Human patients with short bowel syndrome
Test: Example 2: liver biomarkers (albumin, gamma glutamyl transferase, total bilirubin, ALT, AST, ALP) in short bowel syndrome patients, every four weeks for 24 weeks
Assay type: in vivo
Protocol: To further confirm the results of Example 1, a further study was conducted involving more individuals and additional diagnostic biomarkers. Human patients with short bowel syndrome were divided into two groups: a control group (43 total individuals) to receive placebo, and an experimental group (42 total individuals) to receive teduglutide at 0.05 mg/kg/day throughout the study. Patients were treated by subcutaneous injection of placebo or the appropriate dose of teduglutide. Known biomarkers of liver function were monitored every four weeks, for 24 weeks. The liver biomarkers tested included albumin, gamma glutamyl transferase, total bilirubin, ALT and AST and ALP. Before administration of placebo or teduglutide, diagnostic biomarker levels were tested to establish a baseline for each individual.
To determine the effect of GLP-2 on the levels of the diagnostic biomarkers, the average level of each biomarker was measured for the placebo and teduglutide treated groups for each visit. Furthermore, the average change from baseline was calculated using the established baseline values. For FIGS. 17-28, p-values were calculated using the t-test.
P values are provided, which were calculated for each distribution of biomarker changes for each week using the chi-squared test.

[1] = Endpoint (last assessment after start of treatment), 0.05 mg/kg/d, n=42
[2] = Endpoint (last assessment), 0.05 mg/kg/d, m=42

For CC[C@H](C)[C@H](NC(=O)[C@H](Cc1ccccc1)NC(=O)[C@H](CC(=O)O)NC(=O)[C@H](CCCNC(=N)N)NC(=O)[C@H](C)NC(=O)[C@H](C)NC(=O)[C@H](CC(C)C)NC(=O)[C@H](CC(N)=O)NC(=O)[C@H](CC(=O)O)NC(=O)[C@H](CC(C)C)NC(=O)[C@@H](NC(=O)[C@@H](NC(=O)[C@H](CC(N)=O)NC(=O)[C@H](CCSC)NC(=O)[C@H](CCC(=O)O)NC(=O)[C@H](CC(=O)O)NC(=O)[C@H](CO)NC(=O)[C@H](Cc1ccccc1)NC(=O)[C@H](CO)NC(=O)CNC(=O)[C@H](CC(=O)O)NC(=O)CNC(=O)[C@@H](N)Cc1c[nH]cn1)[C@@H](C)O)[C@@H](C)CC)C(=O)N[C@@H](CC(N)=O)C(=O)N[C@@H](Cc1c[nH]c2ccccc12)C(=O)N[C@@H](CC(C)C)C(=O)N[C@H](C(=O)N[C@@H](CCC(N)=O)C(=O)N[C@H](C(=O)N[C@@H](CCCCN)C(=O)N[C@H](C(=O)N[C@H](C(=O)N[C@@H](CC(=O)O)C(=O)O)[C@@H](C)O)[C@@H](C)CC)[C@@H](C)O)[C@@H](C)CC [teduglutide], the “average level of diagnostic biomarkers elevated in liver dysfunction versus placebo cohort” value (0.05 mg/kg/day) was “lower level, on average”, the “likelihood of a >10% decrease in liver biomarkers versus placebo” value (0.05 mg/kg/day) was “more likely” and the “likelihood of a >10% increase in liver biomarkers versus placebo” value (0.05 mg/kg/day) was “less likely”. For the same molecule, the “measured level of albumin relative to placebo cohort” value (0.05 mg/kg/day, as treatment progressed) was “became elevated”, the “ALKALINE PHOSPHATASE Change from Baseline, Median” value [1] was −22 U/L and the “ALT Change from Baseline, Mean” value [1] was −12.1 U/L. For the same molecule, the “ALT Change from Baseline, Median” value [1] was −4 U/L, the “ALT Observed Value, Mean” value [1] was 31.0 U/L and the “ALT Observed Value, Median” value [1] was 23.5 U/L. The “AST Change from Baseline, Mean” value [1] was −5.4 U/L, the “AST Change from Baseline, Median” value [1] was −3 U/L and the “AST Observed Value, Mean” value [1] was 27.0 U/L. For the same molecule, the “AST Observed Value, Median” value [1] was 24 U/L, the “Albumin Change from Baseline, Mean” value [1] was -0.5 g/L and the “Albumin Change from Baseline, Median” value [1] was 0 g/L. For the same molecule, the “Albumin Observed Value, Mean” value [1] was 41.9 g/L, the “Albumin Observed Value, Median” value [1] was 42 g/L and the “Alkaline Phosphatase Change from Baseline, Mean” value [1] was −28.3 U/L. For the same molecule, the “Alkaline Phosphatase Observed Value, Mean” value [1] was 106.4 U/L, the “Alkaline Phosphatase Observed Value, Median” value [1] was 90.5 U/L and the “Bilirubin Change from Baseline, Mean” value [1] was -3.33 µmol/L. The “Bilirubin Change from Baseline, Median” value [1] was -1.95 µmol/L, the “Bilirubin Observed Value, Mean” value [1] was 8.87 µmol/L and the “Bilirubin Observed Value, Median” value [1] was 6.95 µmol/L. For the same molecule, the “Gamma Glutamyl Transferase Change from Baseline, Mean” value [1] was −12.8 U/L, the “Gamma Glutamyl Transferase Change from Baseline, Median” value [1] was −6 U/L and the “Gamma Glutamyl Transferase Observed Value, Mean” value [1] was 62.3 U/L. The “Gamma Glutamyl Transferase Observed Value, Median” value [1] was 42 U/L, the “ALT >10% decrease from Baseline, % of subjects” value [2] was “(59.5%)” and the “ALT >10% decrease from Baseline, n subjects” value [2] was 25. For the same molecule, the “ALT >10% increase from Baseline, % of subjects” value [2] was “(11.9%)”, the “ALT >10% increase from Baseline, n subjects” value [2] was 5 and the “ALT Within 10% of Baseline, % of subjects” value [2] was “(28.6%)”. The “ALT Within 10% of Baseline, n subjects” value [2] was 12, the “AST >10% decrease from Baseline, % of subjects” value [2] was “(59.5%)” and the “AST >10% decrease from Baseline, n subjects” value [2] was 25. For the same molecule, the “AST >10% increase from Baseline, % of subjects” value [2] was “(14.3%)”, the “AST >10% increase from Baseline, n subjects” value [2] was 6 and the “AST Within 10% of Baseline, % of subjects” value [2] was “(26.2%)”. For the same molecule, the “AST Within 10% of Baseline, n subjects” value [2] was 11, the “Albumin >10% decrease from Baseline, % of subjects” value [2] was “(4.8%)” and the “Albumin >10% decrease from Baseline, n subjects” value [2] was 2. The “Albumin >10% increase from Baseline, n subjects” value [2] was 0, the “Albumin Within 10% of Baseline, % of subjects” value [2] was “(95.2%)” and the “Albumin Within 10% of Baseline, n subjects” value [2] was 40. For the same molecule, the “Alkaline Phosphatase >10% decrease from Baseline, % of subjects” value [2] was “(57.1%)”, the “Alkaline Phosphatase >10% decrease from Baseline, n subjects” value [2] was 24 and the “Alkaline Phosphatase >10% increase from Baseline, % of subjects” value [2] was “(14.3%)”. For the same molecule, the “Alkaline Phosphatase >10% increase from Baseline, n subjects” value [2] was 6, the “Alkaline Phosphatase Within 10% of Baseline, % of subjects” value [2] was “(28.6%)” and the “Alkaline Phosphatase Within 10% of Baseline, n subjects” value [2] was 12. For the same molecule, the “Bilirubin >10% decrease from Baseline, % of subjects” value [2] was “(64.3%)”, the “Bilirubin >10% decrease from Baseline, n subjects” value [2] was 27 and the “Bilirubin >10% increase from Baseline, % of subjects” value [2] was “(16.7%)”. The “Bilirubin >10% increase from Baseline, n subjects” value [2] was 7, the “Bilirubin Within 10% of Baseline, % of subjects” value [2] was “(19.0%)” and the “Bilirubin Within 10% of Baseline, n subjects” value [2] was 8. For the same molecule, the “ALT >10% decrease from Baseline, % of subjects” value (Week 2, 0.05 mg/kg/d, m=40) was “(57.5%)”, the “ALT >10% decrease from Baseline, n subjects” value (Week 2, 0.05 mg/kg/d, m=40) was 23 and the “ALT >10% increase from Baseline, % of subjects” value (Week 2, 0.05 mg/kg/d, m=40) was “(17.5%)”. For the same molecule, the “ALT >10% increase from Baseline, n subjects” value (Week 2, 0.05 mg/kg/d, m=40) was 7, the “ALT Within 10% of Baseline, % of subjects” value (Week 2, 0.05 mg/kg/d, m=40) was “(25.0%)” and the “ALT Within 10% of Baseline, n subjects” value (Week 2, 0.05 mg/kg/d, m=40) was 10. The “AST >10% decrease from Baseline, % of subjects” value (Week 2, 0.05 mg/kg/d, m=40) was “(50.0%)”, the “AST >10% decrease from Baseline, n subjects” value (Week 2, 0.05 mg/kg/d, m=40) was 20 and the “AST >10% increase from Baseline, % of subjects” value (Week 2, 0.05 mg/kg/d, m=40) was “(12.5%)”. For the same molecule, the “AST >10% increase from Baseline, n subjects” value (Week 2, 0.05 mg/kg/d, m=40) was 5, the “AST Within 10% of Baseline, % of subjects” value (Week 2, 0.05 mg/kg/d, m=40) was “(37.5%)” and the “AST Within 10% of Baseline, n subjects” value (Week 2, 0.05 mg/kg/d, m=40) was 15. For the same molecule, the “Albumin >10% decrease from Baseline, % of subjects” value (Week 2, 0.05 mg/kg/d, m=40) was “(7.5%)”, the “Albumin >10% decrease from Baseline, n subjects” value (Week 2, 0.05 mg/kg/d, m=40) was 3 and the “Albumin >10% increase from Baseline, n subjects” value (Week 2, 0.05 mg/kg/d, m=40) was 0. The “Albumin Within 10% of Baseline, % of subjects” value (Week 2, 0.05 mg/kg/d, m=40) was “(92.5%)”, the “Albumin Within 10% of Baseline, n subjects” value (Week 2, 0.05 mg/kg/d, m=40) was 37 and the “Alkaline Phosphatase >10% decrease from Baseline, % of subjects” value (Week 2, 0.05 mg/kg/d, m=40) was “(37.5%)”. For the same molecule, the “Alkaline Phosphatase >10% decrease from Baseline, n subjects” value (Week 2, 0.05 mg/kg/d, m=40) was 15, the “Alkaline Phosphatase >10% increase from Baseline, % of subjects” value (Week 2, 0.05 mg/kg/d, m=40) was “(15.0%)” and the “Alkaline Phosphatase >10% increase from Baseline, n subjects” value (Week 2, 0.05 mg/kg/d, m=40) was 6. The “Alkaline Phosphatase Within 10% of Baseline, % of subjects” value (Week 2, 0.05 mg/kg/d, m=40) was “(47.5%)”, the “Alkaline Phosphatase Within 10% of Baseline, n subjects” value (Week 2, 0.05 mg/kg/d, m=40) was 19 and the “Bilirubin >10% decrease from Baseline, % of subjects” value (Week 2, 0.05 mg/kg/d, m=40) was “(70.0%)”. For the same molecule, the “Bilirubin >10% decrease from Baseline, n subjects” value (Week 2, 0.05 mg/kg/d, m=40) was 28, the “Bilirubin >10% increase from Baseline, % of subjects” value (Week 2, 0.05 mg/kg/d, m=40) was “(17.5%)” and the “Bilirubin >10% increase from Baseline, n subjects” value (Week 2, 0.05 mg/kg/d, m=40) was 7. The “Bilirubin Within 10% of Baseline, % of subjects” value (Week 2, 0.05 mg/kg/d, m=40) was “(12.5%)”, the “Bilirubin Within 10% of Baseline, n subjects” value (Week 2, 0.05 mg/kg/d, m=40) was 5 and the “ALKALINE PHOSPHATASE Change from Baseline, Median” value (Week 2, 0.05 mg/kg/d, n=40) was −8 U/L. The “ALT Change from Baseline, Mean” value (Week 2, 0.05 mg/kg/d, n=40) was −8.9 U/L, the “ALT Change from Baseline, Median” value (Week 2, 0.05 mg/kg/d, n=40) was −5.5 U/L and the “ALT Observed Value, Mean” value (Week 2, 0.05 mg/kg/d, n=40) was 35.2 U/L. The “ALT Observed Value, Median” value (Week 2, 0.05 mg/kg/d, n=40) was 27.5 U/L, the “AST Change from Baseline, Mean” value (Week 2, 0.05 mg/kg/d, n=40) was −3.6, U/L and the “AST Change from Baseline, Median” value (Week 2, 0.05 mg/kg/d, n=40) was −3 U/L. For the same molecule, the “AST Observed Value, Mean” value (Week 2, 0.05 mg/kg/d, n=40) was 29.0 U/L, the “AST Observed Value, Median” value (Week 2, 0.05 mg/kg/d, n=40) was 24.5 U/L and the “Albumin Change from Baseline, Mean” value (Week 2, 0.05 mg/kg/d, n=40) was -0.9 g/L. For the same molecule, the “Albumin Change from Baseline, Median” value (Week 2, 0.05 mg/kg/d, n=40) was -1 g/L, the “Albumin Observed Value, Mean” value (Week 2, 0.05 mg/kg/d, n=40) was 41.5 g/L and the “Albumin Observed Value, Median” value (Week 2, 0.05 mg/kg/d, n=40) was 42 g/L. The “Alkaline Phosphatase Change from Baseline, Mean” value (Week 2, 0.05 mg/kg/d, n=40) was −12.5 U/L, the “Alkaline Phosphatase Observed Value, Mean” value (Week 2, 0.05 mg/kg/d, n=40) was 123.7 U/L and the “Alkaline Phosphatase Observed Value, Median” value (Week 2, 0.05 mg/kg/d, n=40) was 104 U/L. For the same molecule, the “Bilirubin Change from Baseline, Mean” value (Week 2, 0.05 mg/kg/d, n=40) was -2.12 µmol/L, the “Bilirubin Change from Baseline, Median” value (Week 2, 0.05 mg/kg/d, n=40) was -1.85 µmol/L and the “Bilirubin Observed Value, Mean” value (Week 2, 0.05 mg/kg/d, n=40) was 10.29 µmol/L. The “Bilirubin Observed Value, Median” value (Week 2, 0.05 mg/kg/d, n=40) was 7.65 µmol/L and the “Gamma Glutamyl Transferase Change from Baseline, Mean” value (Week 2, 0.05 mg/kg/d, n=40) was 7.4 U/L.

Reference: patent US20130072430A1, “METHODS FOR TREATMENT OR PROPHYLAXIS OF KIDNEY OR LIVER DYSFUNCTION” (NPS PHARMACEUTICALS, INC., priority 2010, published 2013)
